Species on record: Rattus norvegicus
Experiment: Open TG-GATES - Regimen: Single
Format: toxicity, organism-based, Sprague-Dawley
Set-up: regimen Single, gender Male, age 6 weeks
Conditions: in vivo, po, 0 mg/kg, route gavage, dose level Control; for APTT / Bas / Eos / Fbg / Hb / Ht / Lym / MCHC / MCV / Mono / Neu / PT / Plat / RBC / Ret / WBC: tissue Blood; for KIDNEY_L / KIDNEY_R / KIDNEY_TOTAL: tissue Kidney; for LIVER: tissue Liver; for ALP / ALT / AST / BUN / CRE / Ca / Cl / DBIL / GLC / IP / K / LDH / Na / PL / RALB / TBIL / TC / TG / TP / gamma-GTP: tissue Plasma

C1CCC(C(CC2CCCCN2)C2CCCCC2)CC1 (centres undefined) [PERHEXILINE]
TERMINAL_BW (3 h): 206.4 g | APTT (3 h): 21.3 s | Bas (3 h): 0% | Eos (3 h): 0.6% | Fbg (3 h): 324 mg/dL | Hb (3 h): 13.5 g/dL | Ht (3 h): 39.5% | Lym (3 h): 80.6% | MCHC (3 h): 34% | MCV (3 h): 62.3 fL | Mono (3 h): 1.4% | Neu (3 h): 16.8% | PT (3 h): 16 s | Plat (3 h): 117.8 x10_4/uL | RBC (3 h): 634.6 x10_4/ul | Ret (3 h): 6.3% | WBC (3 h): 77.4 x10_2/uL | KIDNEY_L (3 h): 0.9 g | KIDNEY_R (3 h): 0.9 g | KIDNEY_TOTAL (3 h): 1.8 g | LIVER (3 h): 9.2 g | ALP (3 h): 1964.4 IU/L | ALT (3 h): 42.6 IU/L | AST (3 h): 70.8 IU/L | BUN (3 h): 14.8 mg/dL | CRE (3 h): 0.1 mg/dL | Ca (3 h): 10.9 mg/dL | Cl (3 h): 106.8 meq/L | DBIL (3 h): 0.002 mg/dL | GLC (3 h): 192.6 mg/dL | IP (3 h): 7.8 mg/dL | K (3 h): 4.2 meq/L | LDH (3 h): 147.6 IU/L | Na (3 h): 140.4 meq/L | PL (3 h): 144.4 mg/dL | RALB (3 h): 3.2 g/dL | TBIL (3 h): 0.014 mg/dL | TC (3 h): 79.8 mg/dL | TG (3 h): 63.4 mg/dL | TP (3 h): 5.7 g/dL | gamma-GTP (3 h): 0.8 IU/L | TERMINAL_BW (6 h): 210.1 g | APTT (6 h): 20.9 s | Bas (6 h): 0% | Eos (6 h): 0.4% | Fbg (6 h): 317.4 mg/dL | Hb (6 h): 13.2 g/dL | Ht (6 h): 39.3% | Lym (6 h): 79.8% | MCHC (6 h): 33.6% | MCV (6 h): 65.6 fL | Mono (6 h): 2.2% | Neu (6 h): 16.6% | PT (6 h): 15.7 s | Plat (6 h): 130.2 x10_4/uL | RBC (6 h): 599.8 x10_4/ul | Ret (6 h): 7.4% | WBC (6 h): 75.5 x10_2/uL | KIDNEY_L (6 h): 1 g | KIDNEY_R (6 h): 1 g | KIDNEY_TOTAL (6 h): 1.9 g | LIVER (6 h): 9.3 g | ALP (6 h): 1510 IU/L | ALT (6 h): 37.8 IU/L | AST (6 h): 67.8 IU/L | BUN (6 h): 11.4 mg/dL | CRE (6 h): 0.1 mg/dL | Ca (6 h): 10.8 mg/dL | Cl (6 h): 105.2 meq/L | DBIL (6 h): 0 mg/dL | GLC (6 h): 178.8 mg/dL | IP (6 h): 9.8 mg/dL | K (6 h): 4 meq/L | LDH (6 h): 239.2 IU/L | Na (6 h): 140.4 meq/L | PL (6 h): 147.8 mg/dL | RALB (6 h): 3 g/dL | TBIL (6 h): 0.018 mg/dL | TC (6 h): 81.2 mg/dL | TG (6 h): 77.4 mg/dL | TP (6 h): 5.6 g/dL | gamma-GTP (6 h): 1 IU/L | TERMINAL_BW (9 h): 206.4 g | APTT (9 h): 21.8 s | Bas (9 h): 0% | Eos (9 h): 0.6% | Fbg (9 h): 319 mg/dL | Hb (9 h): 13.2 g/dL | Ht (9 h): 39.2% | Lym (9 h): 75.8% | MCHC (9 h): 33.7% | MCV (9 h): 64.6 fL | Mono (9 h): 1.8% | Neu (9 h): 20.4% | PT (9 h): 15.6 s | Plat (9 h): 131 x10_4/uL | RBC (9 h): 606.6 x10_4/ul | Ret (9 h): 7.3% | WBC (9 h): 89.6 x10_2/uL | KIDNEY_L (9 h): 0.9 g | KIDNEY_R (9 h): 1 g | KIDNEY_TOTAL (9 h): 1.9 g | LIVER (9 h): 9.2 g | ALP (9 h): 1422.6 IU/L | ALT (9 h): 33.8 IU/L | AST (9 h): 62.2 IU/L | BUN (9 h): 11.4 mg/dL | CRE (9 h): 0.1 mg/dL | Ca (9 h): 10.9 mg/dL | Cl (9 h): 105.6 meq/L | DBIL (9 h): 0 mg/dL | GLC (9 h): 193.8 mg/dL | IP (9 h): 9.4 mg/dL | K (9 h): 3.9 meq/L | LDH (9 h): 196.4 IU/L | Na (9 h): 139.6 meq/L | PL (9 h): 135.6 mg/dL | RALB (9 h): 3 g/dL | TBIL (9 h): 0.012 mg/dL | TC (9 h): 76.4 mg/dL | TG (9 h): 70 mg/dL | TP (9 h): 5.6 g/dL | gamma-GTP (9 h): 0.8 IU/L | TERMINAL_BW (24 h): 228.6 g | APTT (24 h): 20.7 s | Bas (24 h): 0% | Eos (24 h): 0.8% | Fbg (24 h): 315.6 mg/dL | Hb (24 h): 13.1 g/dL | Ht (24 h): 39.4% | Lym (24 h): 74.8% | MCHC (24 h): 33.3% | MCV (24 h): 65.2 fL | Mono (24 h): 2.4% | Neu (24 h): 21.2% | PT (24 h): 16 s | Plat (24 h): 120.5 x10_4/uL | RBC (24 h): 604.2 x10_4/ul | Ret (24 h): 7.2% | WBC (24 h): 89.3 x10_2/uL | KIDNEY_L (24 h): 1 g | KIDNEY_R (24 h): 1 g | KIDNEY_TOTAL (24 h): 2.1 g | LIVER (24 h): 11.2 g | ALP (24 h): 1688.8 IU/L | ALT (24 h): 42.6 IU/L | AST (24 h): 66.4 IU/L | BUN (24 h): 16.8 mg/dL | CRE (24 h): 0.1 mg/dL | Ca (24 h): 11 mg/dL | Cl (24 h): 105.4 meq/L | DBIL (24 h): 0 mg/dL | GLC (24 h): 196.6 mg/dL | IP (24 h): 7.1 mg/dL | K (24 h): 4.3 meq/L | LDH (24 h): 177.6 IU/L | Na (24 h): 141.6 meq/L | PL (24 h): 154.2 mg/dL | RALB (24 h): 3.2 g/dL | TBIL (24 h): 0.014 mg/dL | TC (24 h): 76.8 mg/dL | TG (24 h): 149.4 mg/dL | TP (24 h): 5.7 g/dL | gamma-GTP (24 h): 1 IU/L
